Measured values from US6495592B1, “Tracheal smooth muscle relaxants” (Nippon Suisan Kaisha, Ltd., priority 1996, dated 2002).

Tests used:
[1] = test system: tracheal smooth muscle; assay: Dilating action to contraction of tracheal smooth muscle (potassium chloride-induced contraction of isolated trachea segment, Magnus tube); format: cell-based; settings: Cavia porcellus; 30 μM test substance; contraction induced by 72.7 mM potassium chloride; guinea pig (Hartley, male) trachea segment; read-out: Activity (suppressing rate for contraction by potassium chloride)
Procedure: Each sample is tested by using two segment obtained from one animal; the trachea was removed from a guinea pig (Hartley, male, seven weeks age) and was made the segment, 6 mm in length. The segment was suspended in a Magnus tube containing a physiological salt solution of 37° C. with a flow of mixed gas consisting of 95% oxygen and 5% carbon dioxide gas. A base-line tension of 1 g was applied to the segment and, after tension of the sample became stable, the solution was exchanged with a solution containing 72.7 mM of potassium chloride to induce a contraction. When tension of the contraction by potassium chloride became stable, a compound of the formula (1) was added as a test substance to measure the change in the tension. The test substance was dissolved in dimethyl sulfoxide and added thereto. Incidentally, at the stage of addition, the final concentration of dimethyl sulfoxide was made not more than 0.3%. Changes in the tension was recorded on a recorder (R-64V, Rika Denki) after introducing to an amplifier for strain pressure (AP-621G, Nippon Koden Kogyo) via an FD pickup transducer (TB-611T, Nippon Koden Kogyo). Tension before addition of potassium chloride was set as 0 while that after addition of potassium chloride was set as 100 and the suppressing rate for contraction by potassium chloride after addition of the test substance was expressed by a relative percentage whereby the activity was determined according to the following criteria.
The Compound No. in the table is the same as that in the Production Examples.

[2] = test system: rats; settings: male, rat, in vivo
Procedure: Toxicity test was conducted only for the Compounds 11, 43 and 80 by means of a single oral administration to rats.
Animals used: three males

O=C1Cc2ccccc2Oc2cc(O)cc(O)c21 [Compound 11, 7,9-dihydroxy-10,11-dihydrodibenz[b,f]oxepin-10-one]
inhibition at 30 µM [1]: ≥ 50%
minimum lethal dose [2]: not less than 2,000 mg/kg

O=C1Cc2ccccc2Sc2cc(O)c(O)cc21 [Compound 43, 7,8-dihydroxy-10,11-dihydrodibenzo[b,f]thiepin-10-one]
minimum lethal dose [2]: not less than 2,000 mg/kg

O=C1Cc2ccccc2Sc2cc(O)cc(O)c21 [Compound 80, 7,9-dihydroxy-10,11-dihydrodibenzo[b,f]thiepin-10-one]
inhibition at 30 µM [1]: ≥ 50%
minimum lethal dose [2]: not less than 2,000 mg/kg

CCc1ccc2c(c1)CC(=O)c1c(O)cc(O)cc1O2 [Compound 112, 2-ethyl-7,9-dihydroxy-10,11-dihydrodibenzo[b,f]oxepin-10-one]
inhibition at 30 µM [1]: ≥ 50%

O=C1Cc2cc(C#CCO)ccc2Oc2cc(O)cc(O)c21 [Compound 114]
inhibition at 30 µM [1]: ≥ 50%

O=C1Cc2cc(C#CCCO)ccc2Oc2cc(O)cc(O)c21 [Compound 115, 2-(4-hydroxy-1-butynyl)-7,9-dihydroxy-10,11-dihydrodibenzo[b,f]oxepin-10-one]
inhibition at 30 µM [1]: ≥ 50%

O=C1Cc2cc(C#CCCCO)ccc2Oc2cc(O)cc(O)c21 [Compound 116, 2-(5-hydroxy-1-pentynyl)-7,9-dihydroxy-10,11-dihydrodibenzo[b,f]oxepin-10-one]
inhibition at 30 µM [1]: ≥ 50%
